Experimental data: patent publication US20140155406A1, “4-IMIDAZOPYRIDAZIN-1-YL-BENZAMIDES AND 4-IMIDAZOTRIAZIN-1-YL-BENZAMIDES BTK INHIBITORS” (priority 2011, published 2014)

Experiments:
Assay type in all cases: biochemical
FynT enzyme = biological target: T1, FynT enzyme (Homo sapiens, UniProt P06241); assay: FynT enzyme activity, IMAP fluorescence polarization assay; conditions: 60 min pre-incubation, 0.2 μM ATP (Km)
T1 construct: purchased Biomol SE-287
Protocol: FynT enzyme activity is measured using the IMAP (immobilized metal ion affinity-based fluorescence polarization) assay as outlined below.
(§1) FynT enzyme (Biomol catalog# SE-287), is diluted to 0.5 μg/mL in KR buffer (10 mM Tris-HCl, 10 mM MgCl2, 0.01% Tween-20, 0.05% NaN3, 1 mM DTT, 2 mM MnCl2, pH 7.2). Serial dilution log 10 from 2 mM to 63.2 nM of test compounds are made in 100% DMSO. The dilutions in DMSO are then diluted 50-fold in KR-buffer of which 5 μl is used in the assay, leading to a final compound concentration range in the assay from 10 μM to 0.316 nM. 5 μL/well of test compound in KR buffer (final DMSO concentration in the assay is 1%) is mixed with 5 μl/well of 0.5 μg/mL FynT enzyme (final concentration in the assay is 125 ng/mL). Test compounds and FynT enzyme are pre-incubated 60 minutes at room temperature, before adding 5 μL/well of 400 nM Fluorescin labeled substrate peptide (p34cdc2 substrate peptide, e.g. #R7157/#R7172, Molecular Devices) in KR-buffer. Final peptide substrate concentration in assay is 100 nM. The kinase assay is started by adding 5 μL/well of 0.8 μM ATP in KR-buffer (final ATP concentration is 0.2 μM ATP, Km ATP in FynT IMAP assay). Following incubation for 2 h at room temperature the enzyme reaction is stopped by adding 40 μL/well IMAP Progressive Binding Solution (according to suppliers (Molecular Devices) protocol using 75% 1× buffer A and 25% 1× buffer B with 1:600 Progressive Binding Solution). After 60 min incubation at room temperature in the dark the FP signal is read. Fluorescence at 535 nm is measured using parallel and perpendicular filters to determine differences in rotation due to binding of the phosphorylated substrate peptide to the beads. Values are calculated as percentage of the difference in readout (ΔmPi) of the controls with and without ATP. EC50 values are determined by curve fitting of the experimental results using Activity Base.

Lyn enzyme = biological target: T2, Lyn enzyme (Homo sapiens, UniProt P07948); assay: Lyn enzyme activity, IMAP fluorescence polarization assay; conditions: 60 min pre-incubation, 2 μM ATP (Km)
T2 construct: purchased Millipore 14-510
T2 sequence (P07948 whole entry): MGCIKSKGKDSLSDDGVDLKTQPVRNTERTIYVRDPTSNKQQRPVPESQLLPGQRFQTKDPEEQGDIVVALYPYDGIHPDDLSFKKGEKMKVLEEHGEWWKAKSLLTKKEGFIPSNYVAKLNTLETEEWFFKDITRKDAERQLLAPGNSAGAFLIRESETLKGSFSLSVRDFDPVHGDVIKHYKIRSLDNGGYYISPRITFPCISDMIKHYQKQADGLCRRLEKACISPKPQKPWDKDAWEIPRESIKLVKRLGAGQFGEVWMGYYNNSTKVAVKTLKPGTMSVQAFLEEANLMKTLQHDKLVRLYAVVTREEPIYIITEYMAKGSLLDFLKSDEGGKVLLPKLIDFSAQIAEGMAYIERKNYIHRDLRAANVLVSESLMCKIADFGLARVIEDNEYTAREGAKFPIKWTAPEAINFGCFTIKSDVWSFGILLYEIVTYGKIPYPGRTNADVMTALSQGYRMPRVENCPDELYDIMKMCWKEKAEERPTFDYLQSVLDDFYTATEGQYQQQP
Protocol: Lyn enzyme activity is measured using the IMAP (immobilized metal ion affinity-based fluorescence polarization) assay as outlined below.
Lyn enzyme (Millipore catalog#14-510), is diluted to 250 mU/mL in KR buffer (10 mM Tris-HCl, 10 mM MgCl2, 0.01% Tween-20, 0.05% NaN3, 1 mM DTT, 2 mM MnCl2, pH 7.2). Serial dilution log 10 from 2 mM to 63.2 nM of test compounds are made in 100% DMSO. The dilutions in DMSO are then diluted 50-fold in KR-buffer of which 5 μl is used in the assay, leading to a final compound concentration range in the assay from 10 μM to 0.316 nM. 5 μL/well of test compound in KR buffer (final DMSO concentration in the assay is 1%) is mixed with 5 μl/well of 250 mU/mL Lyn enzyme (final concentration in the assay is 62.5 mU/mL). Test compounds and Lyn enzyme are pre-incubated 60 minutes at room temperature, before adding 5 μL/well of 400 nM Fluorescin labeled substrate peptide (Blk/Lyntide substrate, e.g. #R7188/#R7233, Molecular Devices) in KR-buffer. Final peptide substrate concentration in assay is 100 nM. The kinase assay is started by adding 5 μL/well of 8 μM ATP in KR-buffer (final ATP concentration is 2 μM ATP, Km ATP in Lyn IMAP assay). Following incubation for 2 h at room temperature the enzyme reaction is stopped by adding 40 μL/well IMAP Progressive Binding Solution (according to suppliers (Molecular Devices) protocol using 75% 1× buffer A and 25% 1× buffer B with 1:600 Progressive Binding Solution). After 60 min incubation at room temperature in the dark the FP signal is read. Fluorescence at 535 nm is measured using parallel and perpendicular filters to determine differences in rotation due to binding of the phosphorylated substrate peptide to the beads. Values are calculated as percentage of the difference in readout (ΔmPi) of the controls with and without ATP. EC50 values are determined by curve fitting of the experimental results using Activity Base.

Src enzyme = biological target: T3, Src enzyme (Homo sapiens, UniProt P12931); assay: Src enzyme activity, IMAP fluorescence polarization assay; conditions: 60 min pre-incubation, 4 μM ATP (Km)
T3 construct: purchased Millipore 14-326
T3 sequence (P12931 whole entry): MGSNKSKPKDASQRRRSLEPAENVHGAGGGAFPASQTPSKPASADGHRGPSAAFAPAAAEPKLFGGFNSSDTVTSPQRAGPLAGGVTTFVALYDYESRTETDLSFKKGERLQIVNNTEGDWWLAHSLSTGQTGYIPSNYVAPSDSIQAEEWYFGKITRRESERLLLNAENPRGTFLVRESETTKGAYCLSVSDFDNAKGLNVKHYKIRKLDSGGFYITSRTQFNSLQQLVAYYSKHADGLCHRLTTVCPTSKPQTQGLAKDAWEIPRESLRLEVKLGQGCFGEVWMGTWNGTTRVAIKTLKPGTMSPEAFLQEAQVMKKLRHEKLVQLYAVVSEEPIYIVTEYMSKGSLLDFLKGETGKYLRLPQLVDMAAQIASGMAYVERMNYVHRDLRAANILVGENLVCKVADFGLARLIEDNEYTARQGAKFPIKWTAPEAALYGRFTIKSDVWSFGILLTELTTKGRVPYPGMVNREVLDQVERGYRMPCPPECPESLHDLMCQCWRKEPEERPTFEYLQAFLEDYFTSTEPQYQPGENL
Protocol: Src enzyme activity is measured using the IMAP (immobilized metal ion affinity-based fluorescence polarization) assay as outlined below.
Src enzyme (Millipore catalog#14-326), is diluted to 0.8 U/mL in KR buffer (10 mM Tris-HCl, 10 mM MgCl2, 0.01% Tween-20, 0.05% NaN3, 1 mM DTT, 2 mM MnCl2, pH 7.2).
as §1, with “Serial” for “FynT enzyme (Biomol catalog# SE-287), is diluted to 0.5 μg/mL in KR buffer (10 mM Tris-HCl, 10 mM MgCl2, 0.01% Tween-20, 0.05% NaN3, 1 mM DTT, 2 mM MnCl2, pH 7.2). Serial”, “0.8 U/mL Src” for “0.5 μg/mL FynT”, “0.2 U/mL).” for “125 ng/mL).”, “Src” for “FynT”, “16” for “0.8”, “4” for “0.2”

Lck enzyme = biological target: T4, Lck enzyme (Homo sapiens, UniProt P06239); assay: Lck enzyme activity, IMAP fluorescence polarization assay; conditions: 60 min pre-incubation, 6 μM ATP (Km)
T4 construct: purchased Millipore 14-442
T4 sequence (P06239 whole entry): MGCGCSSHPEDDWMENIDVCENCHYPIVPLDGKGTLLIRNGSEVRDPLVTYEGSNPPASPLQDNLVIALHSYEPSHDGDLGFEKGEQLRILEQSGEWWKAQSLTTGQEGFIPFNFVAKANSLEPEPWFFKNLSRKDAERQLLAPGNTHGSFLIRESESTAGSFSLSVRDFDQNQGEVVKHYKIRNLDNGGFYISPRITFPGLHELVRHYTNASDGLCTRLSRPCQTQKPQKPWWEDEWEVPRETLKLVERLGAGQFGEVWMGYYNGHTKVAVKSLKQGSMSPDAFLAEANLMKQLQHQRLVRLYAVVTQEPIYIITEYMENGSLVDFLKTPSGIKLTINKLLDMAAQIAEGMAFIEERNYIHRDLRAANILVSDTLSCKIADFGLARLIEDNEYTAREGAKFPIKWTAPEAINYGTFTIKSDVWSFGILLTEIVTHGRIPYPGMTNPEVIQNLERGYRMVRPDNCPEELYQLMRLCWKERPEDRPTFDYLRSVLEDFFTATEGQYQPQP
Protocol: Lck enzyme activity is measured using the IMAP (immobilized metal ion affinity-based fluorescence polarization) assay as outlined below.
Lck enzyme (Millipore catalog#14-442), is diluted to 0.4 U/mL in KR buffer (10 mM Tris-HCl, 10 mM MgCl2, 0.01% Tween-20, 0.05% NaN3, 1 mM DTT, 2 mM MnCl2, pH 7.2). Serial dilution log 10 from 2 mM to 63.2 nM of test compounds are made in 100% DMSO. The dilutions in DMSO are then diluted 50-fold in KR-buffer of which 5 μl is used in the assay, leading to a final compound concentration range in the assay from 10 μM to 0.316 nM. 5 μL/well of test compound in KR buffer (final DMSO concentration in the assay is 1%) is mixed with 5 μl/well of 0.4 U/mL Lck enzyme (final concentration in the assay is 0.1 U/mL). Test compounds and Lck enzyme are pre-incubated 60 minutes at room temperature, before adding 5 μL/well of 400 nM Fluorescin labeled substrate peptide (p34cdc2 substrate peptide, e.g. #R7157/#R7172, Molecular Devices) in KR-buffer. Final peptide substrate concentration in assay is 100 nM. The kinase assay is started by adding 5 μL/well of 24 μM ATP in KR-buffer (final ATP concentration is 6 μM ATP, Km ATP in Lck IMAP assay). Following incubation for 2 h at room temperature the enzyme reaction is stopped by adding 40 μL/well IMAP Progressive Binding Solution (according to suppliers (Molecular Devices) protocol using 75% 1× buffer A and 25% 1× buffer B with 1:600 Progressive Binding Solution). After 60 min incubation at room temperature in the dark the FP signal is read. Fluorescence at 535 nm is measured using parallel and perpendicular filters to determine differences in rotation due to binding of the phosphorylated substrate peptide to the beads. Values are calculated as percentage of the difference in readout (ΔmPi) of the controls with and without ATP. EC50 values are determined by curve fitting of the experimental results using Activity Base.

Measured: EC50

T1 sequence (P06241 1-534 isoform P06241-2): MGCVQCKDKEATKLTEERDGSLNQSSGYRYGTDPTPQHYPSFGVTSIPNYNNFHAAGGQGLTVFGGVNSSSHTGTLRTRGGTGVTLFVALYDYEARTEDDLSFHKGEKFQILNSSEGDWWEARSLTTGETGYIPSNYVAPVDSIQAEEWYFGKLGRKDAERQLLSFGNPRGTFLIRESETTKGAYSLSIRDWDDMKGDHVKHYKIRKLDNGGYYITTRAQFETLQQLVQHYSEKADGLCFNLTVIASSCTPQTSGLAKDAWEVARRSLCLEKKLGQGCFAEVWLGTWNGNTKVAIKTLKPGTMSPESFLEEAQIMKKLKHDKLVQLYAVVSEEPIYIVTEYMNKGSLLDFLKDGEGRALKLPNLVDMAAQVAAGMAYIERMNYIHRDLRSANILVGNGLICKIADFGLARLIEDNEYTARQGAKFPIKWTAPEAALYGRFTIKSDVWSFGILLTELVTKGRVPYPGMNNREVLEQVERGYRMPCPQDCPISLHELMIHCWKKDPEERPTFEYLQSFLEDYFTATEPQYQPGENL

COC/C=C/C(=O)N1CCCC[C@H]1c1nc(-c2ccc(C(=O)Nc3cc(C(F)(F)F)ccn3)cc2)c2c(C)nccn12 [Example 30, (S,E)-4-(3-(1-(4-methoxybut-2-enoyl)piperidin-2-yl)-8-methylimidazo[1,5-a]pyrazin-1-yl)-N-(4-(trifluoromethyl)pyridin-2-yl)benzamide]
≥ 1 µM: all assays above

Cc1nccn2c([C@@H]3CCCN3C(=O)/C=C/CN(C)C)nc(-c3ccc(C(=O)Nc4ccccn4)cc3)c12 [Example 31, (S,E)-4-(3-(1-(4-(dimethylamino)but-2-enoyl)pyrrolidin-2-yl)-8-methylimidazo[1,5-a]pyrazin-1-yl)-N-(pyridin-2-yl)benzamide]
≥ 1 µM: all assays above

CC#CC(=O)N1CCC[C@H]1c1nc(-c2ccc(C(=O)Nc3cc(C#N)ccn3)cc2)c2c(C)nccn12 [Example 32, (S)-4-(3-(1-but-2-ynoylpyrrolidin-2-yl)-8-methylimidazo[1,5-a]pyrazin-1-yl)-N-(4-cyanopyridin-2-yl)benzamide]
≥ 1 µM: all assays above

CC#CC(=O)N1CCC[C@H]1c1nc(-c2ccc(C(=O)Nc3cc(CCC)ccn3)cc2)c2c(C)nccn12 [Example 33, (S)-4-(3-(1-but-2-ynoylpyrrolidin-2-yl)-8-methylimidazo[1,5-a]pyrazin-1-yl)-N-(4-propylpyridin-2-yl)benzamide]
≥ 1 µM: all assays above

CCCc1ccnc(NC(=O)c2ccc(-c3nc([C@@H]4CCCCN4C(=O)/C=C/COC)n4ccnc(C)c34)cc2)c1 [Example 34, (S,E)-4-(3-(1-(4-methoxybut-2-enoyl)piperidin-2-yl)-8-methylimidazo[1,5-a]pyrazin-1-yl)-N-(4-propylpyridin-2-yl)benzamide]
≥ 1 µM: all assays above

CCCc1ccnc(NC(=O)c2ccc(-c3nc([C@H](C)N(C)C(=O)/C=C/COC)n4ccnc(C)c34)cc2)c1 [Example 39, (S,E)-4-(3-(1-(4-methoxy-N-methylbut-2-enamido)ethyl)-8-methylimidazo[1,5-a]pyrazin-1-yl)-N-(4-propylpyridin-2-yl)benzamide]
≥ 1 µM: all assays above
